# In the oligonucleotide strings, read from the 5' end, every base follows the letter of its sugar. An asterisk marks phosphorothioate; unmarked linkages are phosphodiester. Other units and linkages are bracketed, terminal groups are in braces. A string of capitals states the bases alone. d = 2'-deoxy (DNA)
# Tests used:
# human meltrin α RNA = test: Suppression of human meltrin α expression by antisense compound in RD cell (real time PCR); format: cell-based; conditions: for suppression rate of expression, 50 nM / suppression rate of expression, 200 nM: corrected by GAPDH; for RNase H-dependent activity of suppressing the meltrin α expression: 2′-methoxy modified form compared to the phosphorothioate form
# How it was run: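 RD cells transfected with heat-denatured antisense oligodeoxynucleotide plus Lipofectin in Opti-MEM for 4 h at 37° C, then cultured 18 h. Meltrin α RNA quantified by TaqMan RT-PCR against plasmid standard curve, GAPDH-corrected; suppression vs untreated cells, rated +/++/+++ for ≥30/50/70%.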
# human preadipocyte = test: Effect of antisense compound on adipocyte proliferation and differentiation (Adipo Red); format: cell-based
# Method: First, human preadipocyte (Human Preadipocytes-sq POIETICS #PT-5020, Sanko Junyaku Co., Ltd.) was suspended in growth medium (#PT-8200, Sanko Junyaku Co., Ltd.), and after adding the suspension to a 96 well culture plate at 1×10^4 cells/well/100 μL, the cells were cultured overnight at 37° C. in the presence of 5% CO2.
# The preadipocyte was cultured overnight, and after washing the preadipocyte twice with serum-free DMEM, Opti-MEM was added at 80 μL/well.
# Gene transfection reagent Lipofectin was diluted with Opti-MEM to 20 μg/mL, and the dilution was allowed to stand at room temperature for 30 minutes. Next, the antisense oligodeoxynucleotide synthesized as described above was heated at 90° C. for 3 minutes, and after quenching on ice, diluted with Opti-MEM to a concentration 10 times higher than the final concentration. Equal amounts of the Lipofectin in Opti-MEM and the antisense oligodeoxynucleotide in Opti-MEM were mixed, and the mixture was incubated at room temperature for 15 minutes and added to 96 well plate at 20 μL/well. After incubating at 37° C. for 4 hours in the presence of 5% CO2, it was used for examination as described below.
# The differentiation medium was prepared by using growth medium (#PT-8200, Sanko Junyaku Co., Ltd.) and supplement kit (PGM Single Quots, #PT-9500, Sanko Junyaku Co., Ltd.) according to the instruction of the kit. Next, the culture supernatant containing the Lipofectin was removed from the 96 well plate prepared in the above (2), and the plate was washed twice with serum-free DMEM, and the differentiation medium prepared as described above was added at 100 μL/well. The plate was then incubated at 37° C. for 5 days to 15 days in the presence of 5% CO2.
# Accumulation of the neutral fat in the adipocyte was determined by fluorometry using Adipo Red stain.
# After taking the 96 well plate out of the CO2 incubator, the plate was allowed to stand until it reached room temperature. The plate was centrifuged at 300 g (1200 rpm) for 10 minutes at room temperature to remove the medium. Next, after gently washing with PBS (SIGMA) at 200 μL/well, PBS was added to the well at 200 μL/well. Next, Adipo Red Assay Reagent (Adipo Red, Cat. #PT-7009, Lot.3F0497, A Cambrex Company) was added at 5 μL/well, and the plate was allowed to stand at room temperature for at least 10 minutes to thereby stain the neutral fat accumulated in the adipocyte. The fat accumulation was determined by measuring fluorescence intensity in a fluorometer at an excitation wavelength of 485 nm and an emission wavelength of 535 nm.
# The suppression rate of the adipocyte differentiation was calculated by converting the fluorescence intensity of the well transfected with the antisense compound in relation to the fluorescence intensity of the well without transfection with the antisense compound which was assumed as 100%. The result was rated “+” when the suppression rate was at least 25%, “++” when the suppression rate was at least 50%, and “+++” when the suppression rate was at least 75%.
substance,measurement,setting,value
"H139 + 14: taggtgcacgtggggcccgg (TAGGTGCACGTGGGGCCCGG; antisense; DNA, all phosphorothioate, methylation of C not given here)","suppression rate of expression, 50 nM","human meltrin α RNA; 50 nM, RD cell",++ (“++” when the suppression rate was at least 50%)
same,Score (suppressing the human adipocyte differentiation),human preadipocyte,++ (“++” when the suppression rate was at least 50%)
5 (dG*dT*dT*dT*dG*dG*dC*dT*dT*dA*dC*dA*dG*dG*dT*dC*dC*dC*dC*dT) [compound 5],"Supression of expression, 50 nM","human meltrin α RNA; 50 nM, RD cell",++ (“++” when the suppression rate was at least 50%)
same,Supression of adipose differentiation 300 nM,"human preadipocyte; 300 nM, human preadipocyte",++ (“++” when the suppression rate was at least 50%)
"H130: tgacagggttggaagccacg (TGACAGGGTTGGAAGCCACG; antisense; DNA, all phosphorothioate, methylation of C not given here)","suppression rate of expression, 50 nM","human meltrin α RNA; 50 nM, RD cell",++ (“++” when the suppression rate was at least 50%)
same,"suppression rate of expression, 200 nM",human meltrin α RNA; RD cell,+++ (“+++” when the suppression rate was at least 70%)
same,RNase H-dependent activity of suppressing the meltrin α expression,human meltrin α RNA,reduced activity of suppressing the meltrin α expression
same,Score (suppressing the human adipocyte differentiation),human preadipocyte,+++ (“+++” when the suppression rate was at least 75%)
H151: gtgtgggtggatctgggcac (dG*dT*dG*dT*dG*dG*dG*dT*dG*dG*dA*dT*dC*dT*dG*dG*dG*dC*dA*dC),"suppression rate of expression, 50 nM","human meltrin α RNA; 50 nM, RD cell",++ (“++” when the suppression rate was at least 50%)
same,"suppression rate of expression, 200 nM",human meltrin α RNA; RD cell,+++ (“+++” when the suppression rate was at least 70%)
same,RNase H-dependent activity of suppressing the meltrin α expression,human meltrin α RNA,reduced activity of suppressing the meltrin α expression
same,Score (suppressing the human adipocyte differentiation),human preadipocyte,++ (“++” when the suppression rate was at least 50%)
"H005: tgcgtcgcgcgcgcgccgtt (TGCGTCGCGCGCGCGCCGTT; antisense; DNA, all phosphorothioate, methylation of C not given here)","suppression rate of expression, 50 nM","human meltrin α RNA; 50 nM, RD cell",++ (“++” when the suppression rate was at least 50%)
same,"suppression rate of expression, 200 nM",human meltrin α RNA; RD cell,++ (“++” when the suppression rate was at least 50%)
same,Score (suppressing the human adipocyte differentiation),human preadipocyte,++ (“++” when the suppression rate was at least 50%)
"H143 + 15: gcttctgaggggggtttggc (GCTTCTGAGGGGGGTTTGGC; antisense; DNA, all phosphorothioate, methylation of C not given here)","suppression rate of expression, 50 nM","human meltrin α RNA; 50 nM, RD cell",+++ (“+++” when the suppression rate was at least 70%)
same,Score (suppressing the human adipocyte differentiation),human preadipocyte,++ (“++” when the suppression rate was at least 50%)
"H131: caaggtggccgaggtgagcc (CAAGGTGGCCGAGGTGAGCC; antisense; DNA, all phosphorothioate, methylation of C not given here)","suppression rate of expression, 50 nM","human meltrin α RNA; 50 nM, RD cell",++ (“++” when the suppression rate was at least 50%)
same,"suppression rate of expression, 200 nM",human meltrin α RNA; RD cell,+++ (“+++” when the suppression rate was at least 70%)
same,RNase H-dependent activity of suppressing the meltrin α expression,human meltrin α RNA,reduced activity of suppressing the meltrin α expression
same,Score (suppressing the human adipocyte differentiation),human preadipocyte,+++ (“+++” when the suppression rate was at least 75%)
"H133 + 2: tcggtgggtaggaatctggc (TCGGTGGGTAGGAATCTGGC; antisense; DNA, all phosphorothioate, methylation of C not given here)","suppression rate of expression, 50 nM","human meltrin α RNA; 50 nM, RD cell",++ (“++” when the suppression rate was at least 50%)
same,Score (suppressing the human adipocyte differentiation),human preadipocyte,+ (“+” when the suppression rate was at least 25%)
"H144 + 18: ggccagaggatctgcaggca (GGCCAGAGGATCTGCAGGCA; antisense; DNA, all phosphorothioate, methylation of C not given here)","suppression rate of expression, 50 nM","human meltrin α RNA; 50 nM, RD cell",+++ (“+++” when the suppression rate was at least 70%)
same,RNase H-dependent activity of suppressing the meltrin α expression,human meltrin α RNA,reduced activity of suppressing the meltrin α expression
same,Score (suppressing the human adipocyte differentiation),human preadipocyte,++ (“++” when the suppression rate was at least 50%)
"H136 + 19: ctgagggacattcaggccgt (CTGAGGGACATTCAGGCCGT; antisense; DNA, all phosphorothioate, methylation of C not given here)","suppression rate of expression, 50 nM","human meltrin α RNA; 50 nM, RD cell",+++ (“+++” when the suppression rate was at least 70%)
same,Score (suppressing the human adipocyte differentiation),human preadipocyte,+ (“+” when the suppression rate was at least 25%)
H187: ggctggtcagctcagggtca (dG*dG*dC*dT*dG*dG*dT*dC*dA*dG*dC*dT*dC*dA*dG*dG*dG*dT*dC*dA; antisense),"suppression rate of expression, 200 nM",human meltrin α RNA; RD cell,+++ (“+++” when the suppression rate was at least 70%)
H147: tcctggggtcctggccaagg (dT*dC*dC*dT*dG*dG*dG*dG*dT*dC*dC*dT*dG*dG*dC*dC*dA*dA*dG*dG; antisense),"suppression rate of expression, 50 nM","human meltrin α RNA; 50 nM, RD cell",++ (“++” when the suppression rate was at least 50%)
same,"suppression rate of expression, 200 nM",human meltrin α RNA; RD cell,+++ (“+++” when the suppression rate was at least 70%)
H105: ggcattggtaccaatgactg (dG*dG*dC*dA*dT*dT*dG*dG*dT*dA*dC*dC*dA*dA*dT*dG*dA*dC*dT*dG; antisense),"suppression rate of expression, 200 nM",human meltrin α RNA; RD cell,+ (“+” when the suppression rate was at least 30%)
H243: cagcagtattattttccagc (DNA dC*dA*dG*dC*dA*dG*dT*dA*dT*dT*dA*dT*dT*dT*dT*dC*dC*dA*dG*dC; antisense),"suppression rate of expression, 200 nM",human meltrin α RNA; RD cell,+ (“+” when the suppression rate was at least 30%)
H148 + 5: ccaggcggagcccagtctcc (dC*dC*dA*dG*dG*dC*dG*dG*dA*dG*dC*dC*dC*dA*dG*dT*dC*dT*dC*dC; antisense),"suppression rate of expression, 50 nM","human meltrin α RNA; 50 nM, RD cell",+ (“+” when the suppression rate was at least 30%)
"H144 + 16: ccagaggatctgcaggcaga (CCAGAGGATCTGCAGGCAGA; antisense; DNA, all phosphorothioate, methylation of C not given here)","suppression rate of expression, 50 nM","human meltrin α RNA; 50 nM, RD cell",++ (“++” when the suppression rate was at least 50%)
"H032: aatttcgagcgagggagaca (AATTTCGAGCGAGGGAGACA; antisense; DNA, all phosphorothioate, methylation of C not given here)","suppression rate of expression, 200 nM",human meltrin α RNA; RD cell,+ (“+” when the suppression rate was at least 30%)
"H131 + 5: ttttccaaggtggccgaggt (TTTTCCAAGGTGGCCGAGGT; antisense; DNA, all phosphorothioate, methylation of C not given here)","suppression rate of expression, 50 nM","human meltrin α RNA; 50 nM, RD cell",+ (“+” when the suppression rate was at least 30%)
"H141: ggctggcaggggtctggcag (GGCTGGCAGGGGTCTGGCAG; antisense; DNA, all phosphorothioate, methylation of C not given here)","suppression rate of expression, 200 nM",human meltrin α RNA; RD cell,++ (“++” when the suppression rate was at least 50%)
H075: cttcctgctgcaactgctga (dC*dT*dT*dC*dC*dT*dG*dC*dT*dG*dC*dA*dA*dC*dT*dG*dC*dT*dG*dA),"suppression rate of expression, 200 nM",human meltrin α RNA; RD cell,+ (“+” when the suppression rate was at least 30%)
H229: aaagaaggctttctcataaa (dA*dA*dA*dG*dA*dA*dG*dG*dC*dT*dT*dT*dC*dT*dC*dA*dT*dA*dA*dA; antisense),"suppression rate of expression, 200 nM",human meltrin α RNA; RD cell,+ (“+” when the suppression rate was at least 30%)
"H135 + 15: gggtctgctgatgtcaacat (GGGTCTGCTGATGTCAACAT; antisense; DNA, all phosphorothioate, methylation of C not given here)",Score (suppressing the human adipocyte differentiation),human preadipocyte,+ (“+” when the suppression rate was at least 25%)
